Target: T1, human PPARγ (Homo sapiens, UniProt P37231)
T1 construct: 1.6 kb of fragment of the prepared plasmid pGEMT-hPPARg2 including human PPARγ gene; expressed in transfected cells; host or cells: CV-1 cells, transient transfection with pCI-hPPARg2, pCI-hRXRa and the reporter pGL3-PPRE3-TK
T1 sequence (P37231 1-505): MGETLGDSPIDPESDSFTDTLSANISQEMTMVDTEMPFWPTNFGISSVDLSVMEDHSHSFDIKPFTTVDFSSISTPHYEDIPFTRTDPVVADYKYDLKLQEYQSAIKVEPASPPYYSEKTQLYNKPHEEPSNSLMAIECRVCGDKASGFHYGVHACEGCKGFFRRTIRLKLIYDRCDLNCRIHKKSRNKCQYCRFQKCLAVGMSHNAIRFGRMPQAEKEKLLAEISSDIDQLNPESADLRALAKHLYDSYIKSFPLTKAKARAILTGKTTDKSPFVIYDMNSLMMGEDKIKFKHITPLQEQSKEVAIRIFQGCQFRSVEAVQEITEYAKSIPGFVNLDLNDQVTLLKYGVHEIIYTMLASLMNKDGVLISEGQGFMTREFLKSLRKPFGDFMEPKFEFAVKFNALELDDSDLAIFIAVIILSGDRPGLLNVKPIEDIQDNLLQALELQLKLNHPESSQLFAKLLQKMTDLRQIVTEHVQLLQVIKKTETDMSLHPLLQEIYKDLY
T1 sequence (P19793 1-462 partner): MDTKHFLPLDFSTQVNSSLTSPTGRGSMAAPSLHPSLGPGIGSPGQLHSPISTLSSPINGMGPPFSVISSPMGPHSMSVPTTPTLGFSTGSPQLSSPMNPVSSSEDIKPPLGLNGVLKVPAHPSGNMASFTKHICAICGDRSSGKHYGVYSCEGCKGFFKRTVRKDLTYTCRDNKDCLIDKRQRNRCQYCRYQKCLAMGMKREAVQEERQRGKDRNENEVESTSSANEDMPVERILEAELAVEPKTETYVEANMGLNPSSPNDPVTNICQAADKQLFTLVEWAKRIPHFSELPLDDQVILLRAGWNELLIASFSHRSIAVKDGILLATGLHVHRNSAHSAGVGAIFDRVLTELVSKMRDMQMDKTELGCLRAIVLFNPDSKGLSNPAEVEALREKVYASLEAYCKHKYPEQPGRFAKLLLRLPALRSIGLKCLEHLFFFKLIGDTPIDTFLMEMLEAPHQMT
Assay: Human PPARγ antagonist assay (luciferase reporter in transfected CV-1 cells)
Format: cell-based
Conditions: CV-1 cells expressing human PPARγ and RXRα with reporter plasmid; pioglitazone 1 μM as stimulant; 24 hours; read-out: Human PPARγ antagonist activities, Inhibition IC50
Method in brief: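 CV-1 cells transiently co-transfected with human PPARγ2, RXRα, PPRE3-TK firefly luciferase and renilla plasmids were exposed 24 h at 37 °C to compound (10 nM–3 μM) plus 1 μM pioglitazone. Firefly/renilla ratios were scaled between pioglitazone alone (0%) and no addition (100%), and IC50 was taken at 50% inhibition.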

`COc1cc(Cn2c3ccccc3c3c(OCCC(C)C(=O)O)cccc32)ccc1OCc1nc(-c2ccccc2)oc1C` (racemic) [Example 27, (±)-4-{9-[3-methoxy-4-((5-methyl-2-phenyl-oxazole-4-yl)methoxy)-benzyl]-9H-carbazole-4-yloxy}-2-methyl-butyric acid] was tested, and the IC50 was 688 nM.
